# Data reported in US10987317B2, “Inhibition of glutaminase C” (Cornell University, priority 2009, dated 2021).
# Legend:
# [1] = tested on: GA activity in Dbl- and Cdc42(F28L)-expressing NIH 3T3 cells; assay: GA activity in mitochondrial fractions of transformed fibroblasts; assay type: cell-based; conditions: 10 μM
# Method: 100%=620 moles of glutamine hydrolyzed per minute per mole of enzyme. Data represent the average of 3 experiments (±s.d.). […] Following precipitation of the beads and re-suspension, the samples are analyzed by Western blotting with anti-V5 antibody. […] Data represent the average of 3 experiments (±s.d.). […] Data represent the average of 3 experiments (±s.d.). […] Data represent the average of 3 experiments (±s.d.). FIG. 3E NIH 3T3 cells transiently expressing Dbl are assayed for focus formation in the presence of 10 μM 968 alone or together with […] dimethyl α-ketoglutarate. […] 100%=680 nM glutamine hydrolyzed per minute per 10^5 cells. Data are the average of 3 experiments (=s.d.). […] 100%=750 nM glutamine hydrolyzed per minute per 10^5 cells. Data represent the average of 3 experiments (±s.d.).
# FIGS. 4A-E illustrate the role of glutaminase C activity in cellular transformation. […] Data represent the average of 3 experiments (±s.d.). […] Data represent the average of 3 experiments (±s.d.). […] 100% represents the activity measured in untreated Dbl-transformed cells. The data represent the average of 2 experiments. […] 100% represents the activity measured in untreated SKBR3 cells. The data represent the average of 2 experiments. […] Data represent the average of 3 experiments (±s.d.).
# FIGS. 11A-E illustrate the effects of different treatments on GA activity. […] The addition of Pi stimulated the GA activity in control 3T3 cells, Dbl-expressing cells, and Cdc42(F28L)-expressing cells by ˜6-fold, 2-fold, and 3-fold, respectively. 100% represents the Pi-stimulated activity measured for Dbl-transformed cells that are not treated with 968. Data is the average of 3 experiments (±s.d.). […] The addition of Pi stimulated the GA activity of HMECs, MDA-MB231 cells, and SKBR3 cells by ˜5-fold, 2-fold, and 1.4-fold, respectively. 100% represents the Pi-stimulated activity for SKBR3 cells that were not treated with 968. Data are the average of 3 experiments (±s.d.). […] Mitochondrial fractions are prepared from equal numbers of cells and assayed for GA activity in the presence or absence of 133 mM Pi. The data are plotted as the percentage of GA activity measured for untreated SKBR3 cells and represent the average of 2 experiments. […] 100% represents the P1-stimulated activity measured for untreateDbl-transformed cells. The data represent the average of 2 experiments. […] 100% represents the Pi-stimulated activity for untreated SKBR3 cells. The data represent the average of 2 experiments.
# Mitochondrial preparations were obtained using the mitochondria isolation kit from QIAGEN (Cat #37612). A suspension containing 2×10^7 cells was transferred into a 50 ml conical tube and centrifuged at 500×g for 10 minutes at 4° C. […]
# [2] = biological target: T1, V5-tagged GAC in NIH 3T3 cells stably expressing Dbl (Mus musculus, UniProt D3Z7P3); assay: GAC phosphorylation by 2-D gel and Western blotting; assay type: cell-based; conditions: 10 μM for 48 hours
# T1 construct: expressed in transfected cells; host or cells: NIH 3T3 cells stably expressing oncogenic Dbl
# T1 sequence (D3Z7P3 55-603 isoform D3Z7P3-2 limits assumed): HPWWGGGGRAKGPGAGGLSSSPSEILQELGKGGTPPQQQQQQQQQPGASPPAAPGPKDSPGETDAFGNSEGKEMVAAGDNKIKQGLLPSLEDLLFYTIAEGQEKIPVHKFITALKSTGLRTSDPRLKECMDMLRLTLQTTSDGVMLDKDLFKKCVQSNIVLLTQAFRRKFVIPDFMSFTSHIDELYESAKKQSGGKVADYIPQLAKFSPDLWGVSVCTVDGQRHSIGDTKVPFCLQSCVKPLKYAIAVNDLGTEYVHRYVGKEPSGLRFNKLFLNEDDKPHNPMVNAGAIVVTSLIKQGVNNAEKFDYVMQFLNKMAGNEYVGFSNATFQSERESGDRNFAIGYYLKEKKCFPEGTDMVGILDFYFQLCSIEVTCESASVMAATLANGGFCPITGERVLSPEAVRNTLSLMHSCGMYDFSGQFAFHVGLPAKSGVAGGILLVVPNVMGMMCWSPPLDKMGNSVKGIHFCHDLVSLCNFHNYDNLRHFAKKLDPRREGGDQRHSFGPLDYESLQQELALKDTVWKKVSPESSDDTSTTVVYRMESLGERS
# Method: NIH 3T3 cells stably expressing the Dbl oncogene, were transiently transfected with DNA encoding a VS-tagged GAC, and then one sample was treated with 968 (10 μM) for 48 hours. The cells were then harvested and the ectopically expressed GAC was isolated by immunoprecipitation via the V5 tag. The samples were then subjected to 2-D gel analysis to separate the V5-GAC by charge and size, and the V5-tagged GAC was visualized by Western blotting using an anti-V5 antibody. […] Since 968 inhibits the enzymatic activity of GAC, and the phosphorylation appears to be required for its basal enzyme activity, it appears that 968 might be functioning to inhibit glutaminase C by inhibiting the ability of at least one site on glutaminase C to become phosphorylated.
structure (smiles),measurement,setting,value
"CN(C)c1ccc(C2Nc3ccc4ccccc4c3C3=C2C(=O)CC(C)(C)C3)cc1Br (stereo not drawn) [Compound 968, 5-[3-bromo-4-(dimethylamino)phenyl]-2,2-dimethyl-2,3,5,6-tetrahydrobenzo[a]]",GA activity of transformed cells,[1],inhibits
same,sensitivity of basal versus phosphate-stimulated GA activity,[1]; 133 mM Pi,basal activity being more sensitive
same,phosphorylation state of GAC,[2],significant reduction of at least one phosphorylation state
